Common to all, as to test: inhibition of tumour cell growth, NCI panel, 48 h
Test [1] concerns SK-OV-3 ovarian.
The subject of test [2] is NCI-H226 lung.
Test [3] concerns OVCAR-4 ovarian.
For test [4], the system named is HCT-15 colon.
The test system of test [5] is HL-60(TB) leukemia.
For test [6], the system named is K-562 leukemia.
The test system of test [7] is MCF7 breast.
The subject of test [8] is SF-295 CNS.
Test [9] relates to ACHN renal.
Test [10] relates to M14 melanoma.

Structures are written as SMILES. Values joined by “and” are separate entries in the source; they are usually repeats but may differ in a detail not shown here. Equal values may be shown once.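 Briefly, cells in 96-well plates were exposed to five compound concentrations for 48 h, and endpoints were estimated by linear interpolation. Abbreviation: GI50, concentration required for 50% inhibition of growth. TGI: total growth inhibition.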

As for `CN(C)C=NC1CCC(C(C)(C)C)CC1` (centres undefined), the TGI amounted to 44.8 µM in test [1]; 41.3 µM in test [2]; 51.1 µM in test [3]; 32.8 µM in test [4]; 33.2 µM in test [5]; 45.1 µM in test [6]. Also, the TGI was more than 100 µM in [7], 31.2 µM in [8], 43.8 µM in [9] and 33.6 µM in [10].

For `Cc1ccc(-c2nc3cc(Cl)c(Cl)cc3nc2C#N)cc1`, the GI50 in test [1], in test [2], in test [3], in [4], in test [5] and in test [6] was more than 100 µM each time. In addition, the GI50 in test [7] is more than 100 µM; in test [8], more than 100 µM; in test [9] it was 39 µM; in [10] it was more than 100 µM. Moreover, the TGI in [1], in [2], in [3], in [4], in test [5] and in [6] was more than 100 µM throughout. In addition, the TGI in [7], in [8], in test [9] and in [10] was more than 100 µM throughout.

Regarding `Cc1nc(-c2cnc(NC(C)C)n(C)c2=O)ccc1Oc1ccnc(-c2cnn(C)c2)c1`, the GI50 in [1] is 23.5 µM; in test [2] it was 14.9 µM; in test [3] it was 7.28 µM; in test [4], 5.51 µM; in [5], 4.31 µM; in [6], 1.64 µM. Besides, the GI50 in [7] is 5.07 µM; in test [8], 9.14 µM; in test [9], 18.9 µM; in [10], 5.72 µM. In addition, the TGI was more than 100 µM in [1]; 99.1 µM in [2]; more than 100 µM in test [3]; more than 100 µM in test [4]; 26.6 µM in test [5]; 9.33 µM in [6]. Besides, the TGI is more than 100 µM in [7], 90.3 µM in test [8], more than 100 µM in test [9] and 33.4 µM in [10].

As to `Nc1cc(C(F)(F)F)c(-c2cc(N3CCOCC3)nc(N3CCOCC3)n2)cn1`, the GI50 was 0.235 µM and 0.654 µM in test [1]; 0.839 µM and 0.592 µM in test [2]; 1.4 µM and 1.27 µM in [3]; 0.523 µM and 0.826 µM in [4]; 0.615 µM and 0.455 µM in test [5]; 0.875 µM and 0.58 µM in test [6]. Further, the GI50 in [7] was 0.228 µM and 0.257 µM; in [8], 0.463 µM and 0.613 µM; in [9], 0.906 µM and 1.14 µM; in [10], 0.669 µM and 0.644 µM. Also, the TGI in test [1] was 1.58 µM and 2.94 µM; in test [2], 4.42 µM and 4.6 µM; in test [3], > 9.01 µM and 29 µM; in test [4], more than 41.1 µM; in test [5] it was 5.45 µM and 9.35 µM; in [6], more than 100 µM. For the same compound, the TGI in test [7] was > 10 µM and 4.05 µM; in test [8], 2.51 µM and 4.26 µM; in test [9], more than 100 µM; in test [10] it was 4.04 µM and 3.88 µM.

With `COC1=C(OC)C(=O)C(Sc2ccc3ccccc3c2)=CC1=O`, the TGI in test [1] was found to be 31.7 µM; in [2] it was 27.2 µM; in [3], 48.5 µM; in test [4] it was 44.7 µM; in test [5], 3.35 µM; in [6] it was 10.3 µM. Moreover, the TGI in test [7] turned out to be 43.9 µM; in test [8] it was 23.8 µM; in [9] it was 23.6 µM; in test [10], 21.8 µM.

As for `COc1ccc2nc3cc([N+](=O)[O-])ccc3c(NNc3ccccc3)c2c1`, the GI50 in test [1] is 14.9 µM; in test [2] it was 1.63 µM; in test [3] it was 11.6 µM; in test [4], 12 µM; in [6], 3.49 µM; in test [7], 4.34 µM. Besides, the GI50 in test [8] is 6.73 µM; in [9], 14.4 µM; in [10] it was 24.2 µM. In addition, the TGI in [1] is 35.3 µM and > 100 µM; in test [2], 18.1 µM and 7.66 µM; in test [3] it was 36.1 µM and > 100 µM; in [4], > 100 µM and 67.2 µM; in test [5], 59.8 µM and > 84 µM; in test [6], 29.4 µM and > 100 µM. Further, the TGI was 19.6 µM and 45.4 µM in test [7]; 25.2 µM and > 100 µM in [8]; 33.1 µM and > 83.3 µM in test [9]; 75.2 µM and > 100 µM in test [10].

With `COc1cc(/C=C/C(=O)N2CCC=CC2=O)cc(OC)c1OC`, the GI50 was 13.8 µM in test [1]; 2.41 µM in [2]; 3.11 µM in test [3]; 1.83 µM in test [4]; 1.91 µM in test [5]; 2.98 µM in [6]. The GI50 in [7] was 2.36 µM; in test [8] it was 6.37 µM; in [9], 1.73 µM; in [10], 1.92 µM. Also, the TGI in [1] was 27.3 µM; in test [2], 6.55 µM; in test [3] it was 17.4 µM; in test [4], 5.01 µM; in test [5], 5.28 µM; in test [6] it was more than 100 µM. In addition, the TGI in test [7] turned out to be 13.9 µM; in [8] it was 21.1 µM; in test [9], 3.28 µM; in [10], 4.41 µM.

For `CCCCCCCCCCCCCCCCCCOc1ccccc1CC(=O)OCC[N+](CC)(CC)CC`, the GI50 in test [1] is 3 µM; in [2] it was 1.27 µM; in [3] it was 1.75 µM; in test [4], 4.39 µM; in test [5] it was 0.926 µM; in test [6], 1.5 µM. The GI50 in test [7] is 1.35 µM; in [8], 1.27 µM; in [9] it was 4.39 µM; in test [10], 1.53 µM. The TGI in test [1] came to 12.1 µM; in test [2], 5.64 µM; in test [3] it was 7.42 µM; in test [4], 13.1 µM; in test [5], 2.78 µM; in test [6], 50 µM. Moreover, the TGI in [7] came out at 5.25 µM; in test [8] it was 5.11 µM; in test [9], 11.3 µM; in test [10], 5.4 µM.

Source of the values: PubChem BioAssay (NCI).
